US20150038545A1, “HYDROXYPHENYL PYRROLE COMPOUNDS CONTAINING AN HYDROXAMIC ACID AS HDAC INHIBITORS AND MEDICINAL APPLICATIONS THEREOF” (UNIVERSIDAD DEL PAÍS VASCO, priority 2011, published 2015)

Assays:
Human HDAC11 = biological target: T1, Human HDAC11 (Homo sapiens, UniProt Q96DB2); assay: In vitro HDAC11 inhibition, fluorogenic peptide assay; format: biochemical; details: for IC50: read-out: IC50 (nM) of enzyme activity HDAC11
T1 construct: GST (N); purchased BioMol SE-560
T1 sequence (Q96DB2 1-347): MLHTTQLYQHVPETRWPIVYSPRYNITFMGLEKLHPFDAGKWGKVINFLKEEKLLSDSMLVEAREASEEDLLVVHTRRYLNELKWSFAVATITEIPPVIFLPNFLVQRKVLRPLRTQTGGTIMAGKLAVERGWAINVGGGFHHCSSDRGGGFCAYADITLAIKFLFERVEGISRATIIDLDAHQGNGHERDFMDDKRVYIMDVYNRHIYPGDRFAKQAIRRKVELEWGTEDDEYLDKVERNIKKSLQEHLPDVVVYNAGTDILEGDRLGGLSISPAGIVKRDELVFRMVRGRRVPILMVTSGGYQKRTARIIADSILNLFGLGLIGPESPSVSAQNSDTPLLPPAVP
Experimental: All HDAC assays were performed using acetylated AMC-labeled peptide substrate: • Substrate for isoforms HDAC1, 2, 3, 4, 5, 6, 7, 9, 10, 11 and HeLa nuclear extract assays: Acetylated fluorogenic peptide from p53 residues 379-382 (RHKKAc) (BioMol. Cat. # KI-104). • Substrate for HDAC8 assays: Acetylated fluorogenic peptide from p53 residues 379-382 (RHKAcKAc) (BioMol. Cat. # KI-178).
Enzymes: • HDAC1 assay: 75 nM Human HDAC1 (GenBank Accession No. NM_004964): Full length with C-terminal GST tag, MW=79.9 kDa, expressed by baculovirus expression system in Sf9 cells (BioMol. Cat. # SE-456). • HDAC2 assay: 5 nM Human HDAC2 (GenBank Accession No. Q92769): Full length with C-terminal His tag, MW=60 kDa, expressed by baculovirus expression system in Sf9 cells (BioMol. Cat. # SE-500). • HDAC3 assay: 2.3 nM Human HDAC3/NcoR2 (GenBank Accession No. NM_003883 for HDAC3, GenBank Accession No.NM_006312 for NcoR2): Complex of human HDAC3, full length with C-terminal His tag, MW=49.7 kDa, and human NCOR2, N-terminal GST tag, MW=39 kDa, co-expressed in baculovirus expression system (BioMol. Cat. # SE-507). • HDAC4 assay: 266 nM Human HDAC4 (GenBank Accession No. NM_006037): Amino acids 627-1085 with N-terminal GST tag, MW=75.2 kDa, expressed in baculovirus expression system (BioMol, Hamburg, Germany). • HDAC5 assay: 588 nM Human HDAC5 (GenBank Accession No. NM_001015053): Full length with Nterminal GST tag, MW=150 kDa, expressed by baculovirus expression system in Sf9 cells (BioMol, Hamburg, Germany). • HDAC6 assay: 13 nM Human HDAC6 (GenBank Accession No. BC069243): Full length with N-terminal GST tag, MW=159 kDa, expressed by baculovirus expression system in Sf9 cells (BioMol. Cat. # SE-508). • HDAC7 assay: 962 nM Human HDAC7 (GenBank Accession No. AY302468): Amino acids 518-end with N-terminal GST tag, MW=78 kDa, expressed in baculovirus expression system (BioMol, Hamburg, Germany). • HDAC8 assay: 119 nM Human HDAC8 (GenBank Accession No. NM018486): Full length, MW=42 kDa, expressed in an E. coli expression system (BioMol. […]
The reactions were carried out in a 96-well microplate for fluorometry in a 50 μl reaction volume. […] The reaction was allowed to develop for 45 minutes at 30° C. with 5% CO2; then the fluorescent signal was measured with an excitation wavelength at 360 nm and an emission wavelength at 460 nm in a microplate-reading fluorometer (GeminiXS; Molecular Devices, Sunnyvale, Calif.). […] IC50 was calculated by fitting the experimental data to a dose-response curve. […]

NCI-H1703 = assay: Cancer cell growth inhibition (CellTiter-Glo), NCI-H1703; format: cell-based, Human; details: Homo sapiens; Lung Cancer, NCI-H1703, 72 h treatment
Experimental: (§1) Cell culture-based assays were used to evaluate the ability of compounds of the invention to inhibit cancer cell growth.
(§2) Cells were obtained from the American Type Culture Collection (ATCC). Cells were cultured at 37° C. with 5% CO2 in the appropriate growth medium (see table below), and harvested respectively during the logarithmic growth period and counted with hemocytometer. The cell viability was examined by trypan blue exclusion. Cell concentrations were adjusted to 5.56×10^4 cells/ml with respective medium.
(§3) Stock solutions of test compounds and positive drugs Doxorubicin (Zhejiang, Haizheng, China), Cisplatin (Nanjing Zhiyao, China) and Mitomycin (Zhejiang, Haizheng, China) were prepared in dimethyl sulphoxide (DMSO) or PBS at 20 mM.
(§4) In order to determine the IC50 for each compound, experiments were carried out in 96-well plates and the cell lines seeded at a density of 5,000 cells/well. […] All treatments were performed in triplicate. 10 μl of drug solution was added to each well and incubated for 72 hours. At the end of the incubation, 100 μl of the CellTiter-Glo Reagent were added to each well and the contents were mixed for 2 munites on an orbital shaker to induce cell lysis. The plate was incubated at room temperature for 10 minutes to stabilize luminiscent signal, and luminiscent was recorded. […] In order to calculate IC50 values, dose-responsive curves were fitted using nonlinear regression model with a sigmoidal dose response.

PANC-1 = assay: Cancer cell growth inhibition (CellTiter-Glo), PANC-1; format: cell-based, Human; details: Homo sapiens; Pancreatic Cancer, PANC-1, 72 h treatment
Experimental: as §1, §2, §3, §4

Row | Structure (SMILES) | Selectivity against HDAC6 (IC50 HDACx/IC50 HDAC6) HDAC11 (Human HDAC11; IC50 HDAC11/IC50 HDAC6) | IC50 (Human HDAC11) [nM] | IC50 (NCI-H1703) [µM] | IC50 (PANC-1) [µM]
1 | COc1ccc(-c2cc(-c3ccccc3)[nH]c2C(=O)NCCCCCC(=O)NO)cc1 [Compound A, N-[6-(hydroxyamino)-6-oxohexyl]-3-(4-methoxyphenyl)-5-phenyl-1H-pyrrole-2-carboxamide, reference compound] | 34 | 680 |  | 
2 | O=C(CCCCCNC(=O)c1[nH]c(-c2ccccc2)cc1-c1ccc(O)cc1)NO [Example 1, N-(6-(hydroxyamino)-6-oxohexyl)-3-(4-hydroxyphenyl)-5-phenyl-1H-pyrrole-2-carboxamide] |  |  | 3.26 | 6.04
3 | O=C(CCCCCNC(=O)c1[nH]c(-c2ccc(O)cc2)cc1-c1ccccc1)NO [Example 2, N-(6-(hydroxyamino)-6-oxohexyl)-5-(4-hydroxyphenyl)-3-phenyl-1H-pyrrole-2-carboxamide] |  |  | 2.06 | 27.7
4 | O=C(CCCCCNC(=O)c1[nH]c(-c2ccc(O)cc2)cc1-c1ccoc1)NO [Example 5, 3-(3-furyl)-N-(5-(hydroxycarbamoyl)pentyl)-5-(4-hydroxy-phenyl)-1H-pyrrole-2-carboxamide] |  | 18 | 1.64 | 29.2
5 | O=C(CCCCCNC(=O)c1[nH]c(-c2ccc(O)cc2)cc1-c1ccsc1)NO [Example 6, N-(5-(hydroxycarbamoyl)pentyl)-5-(4-hydroxyphenyl)-3-(3-thienyl)-1H-pyrrole-2-carboxamide] |  | 55 | 1.83 | 22.2
